Assay results: patent publication US10011629B2, “Nucleoside analogs for treatment of the flaviviridae family of viruses and cancer” (Cocrystal Pharma, Inc., priority 2015, dated 2018)

Legend:
[1] = Cellular toxicity assay in Vero cells; type: cell-based; conditions: African green monkey; for CC50: read-out: Cytotoxicity, CC50; for cytotoxicity: value in parentheses after CC50, read-out: Cytotoxicity (% inhibition)
Experimental: (§1) The toxicity of the compounds was assessed in Vero, human PBM, CEM (human lymphoblastoid), MT-2, and HepG2 cells, as described previously (see Schinazi R. F., Sommadossi J.-P., Saalmann V., Cannon D. L., Xie M.-Y., Hart G. C., Smith G. A. & Hahn E. F. Antimicrob. Agents Chemother. 1990, 34, 1061-67).
(§2) Cycloheximide was included as positive cytotoxic control, and untreated cells exposed to solvent were included as negative controls. The cytotoxicity IC50 was obtained from the concentration-response curve using the median effective method described previously (see Chou T.-C. & Talalay P. Adv. Enzyme Regul. 1984, 22, 27-55; Belen′kii M. S. & Schinazi R. F. Antiviral Res. 1994, 25, 1-11).

[2] = Cellular toxicity assay in PBM cells; type: cell-based; conditions: human; for CC50: read-out: Cytotoxicity, CC50; for cytotoxicity: value in parentheses after CC50, read-out: Cytotoxicity (% inhibition)
Experimental: as §1, §2

[3] = Cellular toxicity assay in CEM cells; type: cell-based; conditions: human; for CC50: read-out: Cytotoxicity, CC50; for cytotoxicity: value in parentheses after CC50, read-out: Cytotoxicity (% inhibition)
Experimental: as §1, §2

[4] = tested on: HepaRG cells; test: HepaRG 14-day cell viability assay (CellTiter-Glo); type: cell-based; conditions: 14 days with 4 repeat doses
Experimental: IC50 in HepaRG Cells for a 14-Day Assay (Non-Proliferating Liver Cells) Using Cell Titer GLO
HepaRG cells are plated one week prior to dosing to allow for the cells to regain its maximal metabolic activity and structure. HepaRG cells are dosed with increasing concentrations of the test compound (final DMSO concentration=0.5%); final test compound concentrations of 100, 30, 10, 3, 1, 0.3, 0.1, 0.03 μM for an eight point dose response curve (n=3 replicates per concentration) and the microtissues are incubated for 14 days with 4 repeat doses. Appropriate controls are simultaneously used as quality controls. Following the dosing period the medium is removed the cell viability is determined using CellTiter-Glo® reagent. The test sample is subsequently transferred to designated wells of a white assay plate and the luminescence determined using a luminometer.
IC50 values are also determined provided a clear dose-response relationship is observed.

[5] = tested on: HCV 1b (Huh 7 Clone B cells containing HCV Replicon RNA); test: HCV replicon assay; type: cell-based; conditions: HCV 1b replicon; for EC50 / EC90: Hepatitis C virus, Huh-7, letter value; for EC50: read-out: EC50 (μM or letter value); for EC90: read-out: EC90 (μM or letter value) or % inhib HCV
Experimental: Huh 7 Clone B cells containing HCV Replicon RNA were seeded in a 96-well plate at 5000 cells/well, and the compounds tested at 10 μM in triplicate immediately after seeding. Following five days incubation (37° C., 5% CO2), total cellular RNA was isolated by using versaGene RNA purification kit from Gentra. Replicon RNA and an internal control (TaqMan rRNA control reagents, Applied Biosystems) were amplified in a single step multiplex Real Time RT-PCR Assay. The antiviral effectiveness of the compounds was calculated by subtracting the threshold RT-PCR cycle of the test compound from the threshold RT-PCR cycle of the no-drug control (ΔCt HCV). A ΔCt of 3.3 equals a 1-log reduction (equal to 90% less starting material) in Replicon RNA levels. The cytotoxicity of the compounds was also calculated by using the ΔCt rRNA values. 2′-C-Me-C was used as the positive control. To determine EC90 and IC50 values^2, ΔCt: values were first converted into fraction of starting material^3 and then were used to calculate the % inhibition. […]

[6] = tested on: HepG2 cells; test: Lactic acid production in HepG2 cells; type: cell-based, human; conditions: 14-day assay, 10 μM
Experimental: To measure the effects of the compounds on lactic acid production, HepG2 cells from a stock culture were diluted and plated in 12-well culture plates at 2.5×10^4 cells per well. […] […] The culture medium was then filtered, and the lactic acid content in the medium was determined using a colorimetric lactic acid assay (Sigma-Aldrich). Since lactic acid product can be considered a marker for impaired mitochondrial function, elevated levels of lactic acid production detected in cells grown in the presence of test compounds would indicate a drug-induced cytotoxic effect.

[7] = tested on: nuclear DNA (ß-actin or rRNA gene) in HepG2 cells; test: Nuclear DNA level in HepG2 cells (real-time PCR); type: cell-based, human; conditions: HepG2 cells, 14-day assay; for % inhibition nDNA: 10 μM; for IC50: read-out: IC50 nDNA
Experimental: (§3) This assay was used in all studies described in this application that determine the effect of compounds on mitochondrial DNA content. In this assay, low-passage-number HepG2 cells were seeded at 5,000 cells/well in collagen-coated 96-well plates. Test compounds were added to the medium to obtain final concentrations of 0 μM, 0.1 μM, 10 μM and 100 μM. […] The mitochondrial cytochrome c oxidase subunit II (COXII) gene and the ß-actin or rRNA gene were amplified from 5 μl of the eluted nucleic acids using a multiplex Q-PCR protocol with suitable primers and probes for both target and reference amplifications. […] For exon 3 of the ß-actin gene (GenBank accession number E01094) the sense, probe, and antisense primers are 5′-[…]-3′ (SEQ ID NO. 4), 5′-6-[…]-3′ (SEQ ID NO. 5) and 5′-[…]-3′ (SEQ ID NO. 6), respectively. The primers and probes for the rRNA gene are commercially available from Applied Biosystems. […] The comparative CT method uses arithmetic formulas in which the amount of target (COXII gene) is normalized to the amount of an endogenous reference (the B-actin or rRNA gene) and is relative to a calibrator (a control with no drug at day 7). The arithmetic formula for this approach is given by 2-ΔΔCT, where ΔΔCT is (CT for average target test sample−CT for target control)−(CT for average reference test−CT for reference control) (see Johnson M R, K Wang, J B Smith, M J Heslin, R B Diasio. Quantitation of dihydropyrimidine dehydrogenase expression by real-time reverse transcription polymerase chain reaction. Anal. Biochem. 2000; 278:175-184). A decrease in mitochondrial DNA content in cells grown in the presence of drug indicated mitochondrial toxicity.

[8] = tested on: mitochondrial DNA (COXII gene) in HepG2 cells; test: Mitochondrial DNA level in HepG2 cells (real-time PCR); conditions: for % inhibition MitDNA / IC50: HepG2 cells, 14-day assay; for % inhibition MitDNA: 10 μM; for IC50: read-out: IC50 MitDNA
Experimental: as §3, with “The” for “The comparative CT method uses arithmetic formulas in which the amount of target (COXII gene) is normalized to the amount of an endogenous reference (the B-actin or rRNA gene) and is relative to a calibrator (a control with no drug at day 7). The”

In the case of O=c1ccn([C@@H]2O[C@H](CO)[C@@H](O)[C@]2(F)Br)c(=O)[nH]1, the CC50 [1] is reported as > 100 µM, the cytotoxicity [1] is reported as 4.2% and the CC50 [2] is reported as > 100 µM. The cytotoxicity [2] was -24%, the CC50 ([3]; CEM lymphoblastoid cells) was > 100 µM and the cytotoxicity ([3]; CEM lymphoblastoid cells) was 21%.

N#CC(C#N)=NNc1cccc(Cl)c1 [Carbonyl cyanide m-chlorophenyl hydrazone, reference compound] showed an IC50 ([4]; Homo sapiens, 336 h) of 5.08 µM.

CC(C)OC(=O)[C@H](C)N[P@@](=O)(OC[C@H]1O[C@@H](n2ccc(=O)[nH]c2=O)[C@@](F)(Br)C1O)Oc1ccccc1 (some centres unmarked) [Compound 22] showed an IC50 ([4]; Homo sapiens, 336 h) of 7.18 µM, an EC50 [5] of 0.1 to 1 µM and an EC90 [5] of 1 to 10 µM.

With CC(C)OC(=O)[C@H](C)NP(=O)(OC[C@H]1O[C@@H](n2ccc(N)nc2=O)[C@](F)(Br)[C@@H]1O)Oc1ccccc1 (stereo partly drawn) [Compound 21, Isopropyl ((((2R,3R,4R,5R)-5-(4-amino-2-oxopyrimidin-1(2H)-yl)-4-bromo-4-fluoro-3-hydroxytetrahydrofuran-2-yl)methoxy)(phenoxy)phosphoryl)-L-alaninate] the “EC50 (μM or letter value): value printed as % @ 10 μM” value ([5]; 10 μM) was 67.9% @ 10 μM.

With Nc1ccn([C@H]2CC[C@@H](CO)O2)c(=O)n1 [ddc, reference compound] the “Lactic acid Production (% of control)” value [6] was 267 ± 25.2 % of control, the “% inhibition nDNA” value [7] was 88.7% and the IC50 [7] was < 10 µM. The “Summary (mitochondrial toxicity)” value [8] was “toxic”, the “% inhibition MitDNA” value [8] was 99.9% and the IC50 [8] was < 10 µM.

In the case of Nc1ccn([C@@H]2CS[C@H](CO)O2)c(=O)n1 [Compound 3TC, reference compound], the “Lactic acid Production (% of control)” value [6] is reported as 94.9 ± 12.2 % of control, the “% inhibition nDNA” value [7] is reported as 26.8% and the IC50 [7] is reported as > 10 µM. The “% inhibition MitDNA” value [8] was 33.3% and the IC50 [8] was > 10 µM.

In the case of CC(C)OC(=O)[C@H](C)NP(=O)(OC[C@H]1O[C@@H](n2ccc(=O)[nH]c2=O)C(F)(Br)C1O)Oc1ccccc1 (some centres unmarked), the CC50 [1] is reported as > 100 µM, the cytotoxicity [1] is reported as 2.6% and the CC50 [2] is reported as > 100 µM. The cytotoxicity [2] was -3.8%, the CC50 [3] was > 100 µM and the cytotoxicity [3] was 14%.

CC(C)OC(=O)[C@H](C)N[P@](=O)(OC[C@H]1O[C@@H](n2ccc(=O)[nH]c2=O)[C@@](F)(Br)C1O)Oc1ccccc1 (some centres unmarked) [Compound 23] gave an IC50 ([4]; Homo sapiens, 336 h) of 35 µM, an EC50 [5] of 0.1 to 1 µM and an EC90 [5] of 0.1 to 1 µM.

Work on Tunicamycin [reference compound] yielded an IC50 [4] of 0.011 µM.
